Results published in US20180228828A1, “FIXED-DOSE COMBINATIONS OF ANTIVIRAL COMPOUNDS” (priority 2015, published 2018).

Experiments:
[1] = human bioavailability comparison study, Tablet Formulation 10 vs co-administered single entity products; assay type: in vivo; settings: for AUC(0-inf) / Cmax / AUC(0-t) / concentration at 24 h: human plasma, fasted; for concentration at 24 h: read-out: C24 GM
Description: (§1) The blend is lubricated with magnesium stearate prior to roller compaction. Following roller compaction, the granules are further lubricated with magnesium stearate before compression on a rotary press. Tablet properties of apparent density and solid fraction are determined by gravimetric measurement of the drug product and geometric estimation of size with corresponding component powder measure of true density using helium pycnometry. The core tablets are then film coated and waxed to complete manufacture.
(§2) The reference in the study was co-administration of single entity products to achieve the equivalent total dose. In this cross-over design study all subjects were in the fasted state. Tablet Formulations 9b, and 10b were administered as Treatment C in the respective studies. Tablet Formulations 9a, and 10a were administered as Treatment B in the respective studies. The co-administration of the reference products were identified as Treatment A. After administration, blood samples were taken periodically, and the plasma concentration of the analytes, both primary compounds and metabolites, determined to generate the pharmacokinetic profiles and related specific metrics. These metrics included Cmax, AUC, and C24 (where quantifiable). Summary results from the human PK trials for Tablet Formulation 9 and Tablet Formulation 10 products are provided in Table 10 to Table 13 and Table 14 to 17, respectively. The resulting metrics were then compared in relation to the reference single entity products to assess similarity.

[2] = human bioavailability comparison study, Tablet Formulation 9 vs co-administered single entity products; assay type: in vivo; settings: for AUC(0-inf) / Cmax / AUC(0-t) / concentration at 24 h: human plasma, fasted; for concentration at 24 h: read-out: C24 GM
Description: as §1, §2

log D = assay type: physicochemical; settings: pH=7
[3] = Treatment B (Tablet Formulation 10a) / Treatment A (single entities)
[4] = Treatment C (Tablet Formulation 10b) / Treatment A (single entities)
[5] = human, in vivo, Treatment A: co-administered single entity products, equivalent total dose
[6] = human, in vivo, Treatment A: co-administered single entity products, equivalent total dose, read-out: AUC0-24 GM
[7] = human, in vivo, Treatment A: co-administered single entity products, equivalent total dose, read-out: AUC0-last GM
[8] = human, in vivo, Treatment B: one unit Tablet Formulation 10a
[9] = human, in vivo, Treatment C: one unit Tablet Formulation 10b
[10] = Treatment B (Tablet Formulation 9a) / Treatment A (single entities)
[11] = Treatment C (Tablet Formulation 9b) / Treatment A (single entities)
[12] = human, in vivo, Treatment B: two units Tablet Formulation 9a
[13] = human, in vivo, Treatment C: two units Tablet Formulation 9b
[14] = human, plasma, oral, Treatment A: co-administered single entity products, equivalent total dose
[15] = human, plasma, oral, Treatment A: co-administered single entity products, equivalent total dose, read-out: AUC0-24 GM
[16] = human, plasma, oral, Treatment A: co-administered single entity products, equivalent total dose, read-out: AUC0-last GM
[17] = human, plasma, oral, Treatment B: one unit Tablet Formulation 10a (300 mg Compound I, 100 mg Compound II, 50 mg Compound III), read-out: AUC0-last GM
[18] = human, plasma, oral, Treatment B: one unit Tablet Formulation 10a
[19] = human, plasma, oral, Treatment B: one unit Tablet Formulation 10a, read-out: AUC0-24 GM
[20] = human, plasma, oral, Treatment C: one unit Tablet Formulation 10b (300 mg Compound I, 100 mg Compound II, 50 mg Compound III), read-out: AUC0-last GM
[21] = human, plasma, oral, Treatment C: one unit Tablet Formulation 10b
[22] = human, plasma, oral, Treatment C: one unit Tablet Formulation 10b, read-out: AUC0-24 GM
[23] = human, plasma, oral, Treatment B: two units Tablet Formulation 9a (450 mg Compound I, 100 mg Compound II, 50 mg Compound III), read-out: AUC0-last GM
[24] = human, plasma, oral, Treatment B: two units Tablet Formulation 9a
[25] = human, plasma, oral, Treatment B: two units Tablet Formulation 9a, read-out: AUC0-24 GM
[26] = human, plasma, oral, Treatment C: two units Tablet Formulation 9b (450 mg Compound I, 100 mg Compound II, 50 mg Compound III), read-out: AUC0-last GM
[27] = human, plasma, oral, Treatment C: two units Tablet Formulation 9b
[28] = human, plasma, oral, Treatment C: two units Tablet Formulation 9b, read-out: AUC0-24 GM

With `CC(C)OC(=O)[C@@H](C)NP(=O)(OC[C@H]1O[C@@H](n2ccc(=O)[nH]c2=O)[C@](C)(Cl)[C@@H]1O)Oc1ccccc1` (stereo partly drawn) [Compound I, (2R)-isopropyl 2-(((((2R,3R,4R,5R)-4-chloro-5-(2,4-dioxo-3,4-dihydropyrimidin-1(2H)-yl)-3-hydroxy-4-methyltetrahydrofuran-2-yl)methoxy)(phenoxy)phosphoryl)amino)propanoate] the “AUC0-24 B/A GM ratio” value [1, 3] was 0.96, the “AUC0-last B/A GM ratio” value [1, 3] was 0.95 and the “AUC0-∞ B/A GM ratio” value [1, 3] was 0.98. For the same compound, the “Cmax B/A GM ratio” value [1, 3] was 0.98, the “AUC0-24 C/A GM ratio” value [1, 4] was 1.01 and the “AUC0-last C/A GM ratio” value [1, 4] was 1.00. The “AUC0-∞ C/A GM ratio” value [1, 4] was 1.01, the “Cmax C/A GM ratio” value [1, 4] was 1.18 and the AUC(0-inf) [1, 5] was 1.69 µM·h. For the same compound, the Cmax [1, 5] was 525 nM, the AUC(0-t) [1, 6] was 1.65 µM·h and the AUC(0-t) [1, 7] was 1.63 µM·h. For the same compound, the AUC(0-t) ([1]; human, in vivo, Treatment B: one unit Tablet Formulation 10a (300 mg Compound I, 100 mg Compound II, 50 mg Compound III), read-out: AUC0-last GM) was 1.55 µM·h, the AUC(0-inf) [1, 8] was 1.65 µM·h and the Cmax [1, 8] was 517 nM. The AUC(0-t) ([1]; human, in vivo, Treatment B: one unit Tablet Formulation 10a, read-out: AUC0-24 GM) was 1.58 µM·h, the AUC(0-t) ([1]; human, in vivo, Treatment C: one unit Tablet Formulation 10b (300 mg Compound I, 100 mg Compound II, 50 mg Compound III), read-out: AUC0-last GM) was 1.63 µM·h and the AUC(0-inf) [1, 9] was 1.7 µM·h. The Cmax [1, 9] was 618 nM, the AUC(0-t) ([1]; human, in vivo, Treatment C: one unit Tablet Formulation 10b, read-out: AUC0-24 GM) was 1.67 µM·h and the “AUC0-24 B/A GM ratio” value [2, 10] was 1.23. The “AUC0-last B/A GM ratio” value [2, 10] was 1.24, the “AUC0-∞ B/A GM ratio” value [2, 10] was 1.23 and the “Cmax B/A GM ratio” value [2, 10] was 1.44. The “AUC0-24 C/A GM ratio” value [2, 11] was 1.37, the “AUC0-last C/A GM ratio” value [2, 11] was 1.38 and the “AUC0-∞ C/A GM ratio” value [2, 11] was 1.36. For the same compound, the “Cmax C/A GM ratio” value [2, 11] was 1.69, the AUC(0-inf) [2, 5] was 2.6 µM·h and the Cmax [2, 5] was 738 nM. It also gave an AUC(0-t) [2, 6] of 2.56 µM·h, an AUC(0-t) [2, 7] of 2.52 µM·h and an AUC(0-t) ([2]; human, in vivo, Treatment B: two units Tablet Formulation 9a (450 mg Compound I, 100 mg Compound II, 50 mg Compound III), read-out: AUC0-last GM) of 3.11 µM·h. The AUC(0-inf) [2, 12] was 3.2 µM·h, the Cmax [2, 12] was 1060 nM and the AUC(0-t) ([2]; human, in vivo, Treatment B: two units Tablet Formulation 9a, read-out: AUC0-24 GM) was 3.15 µM·h. For the same compound, the AUC(0-t) ([2]; human, in vivo, Treatment C: two units Tablet Formulation 9b (450 mg Compound I, 100 mg Compound II, 50 mg Compound III), read-out: AUC0-last GM) was 3.48 µM·h, the AUC(0-inf) [2, 13] was 3.54 µM·h and the Cmax [2, 13] was 1250 nM. The AUC(0-t) ([2]; human, in vivo, Treatment C: two units Tablet Formulation 9b, read-out: AUC0-24 GM) was 3.52 µM·h.
In the case of `COC(=O)N[C@H](C(=O)N1CCC[C@H]1c1nc(-c2ccc3c(c2)O[C@@H](c2ccccc2)n2c-3cc3cc(-c4c[nH]c([C@@H]5CCCN5C(=O)[C@@H](NC(=O)OC)C(C)C)n4)ccc32)c[nH]1)C(C)C` [Compound II, dimethyl N,N′-([(6S)-6-phenylindolo[1,2-c][1,3]benzoxazine-3,10-diyl]bis{1H-imidazole-5,2-diyl-(2S)-pyrrolidine-2,1-diyl[(2S)-3-methyl-1-oxobutane-1,2-diyl]})dicarbamate], the Cmax ([1]; Treatment C: one unit Tablet Formulation 10b) is reported as 102 nM, the AUC(0-inf) [1, 14] is reported as 1.84 µM·h and the Cmax [1, 14] is reported as 101 nM. It also gave an AUC(0-t) [1, 15] of 1.12 µM·h, an AUC(0-t) [1, 16] of 1.81 µM·h and a concentration at 24 h [1, 14] of 28.5 nM. For the same compound, the AUC(0-t) [1, 17] was 1.55 µM·h, the AUC(0-inf) [1, 18] was 1.58 µM·h and the Cmax [1, 18] was 81.8 nM. For the same compound, the AUC(0-t) [1, 19] was 0.95 µM·h, the concentration at 24 h [1, 18] was 25.1 nM and the AUC(0-t) [1, 20] was 1.83 µM·h. The AUC(0-inf) [1, 21] was 1.85 µM·h, the AUC(0-t) [1, 22] was 1.14 µM·h and the concentration at 24 h [1, 21] was 29.2 nM. For the same compound, the Cmax ([2]; Treatment C: two units Tablet Formulation 9b) was 115 nM, the AUC(0-inf) [2, 14] was 2.04 µM·h and the Cmax [2, 14] was 113 nM. The AUC(0-t) [2, 15] was 1.21 µM·h, the AUC(0-t) [2, 16] was 2.01 µM·h and the concentration at 24 h [2, 14] was 32.3 nM. The AUC(0-t) [2, 23] was 1.59 µM·h, the AUC(0-inf) [2, 24] was 1.61 µM·h and the AUC(0-t) [2, 25] was 0.938 µM·h. For the same compound, the concentration at 24 h [2, 24] was 25.2 nM, the AUC(0-t) [2, 26] was 2.35 µM·h and the AUC(0-inf) [2, 27] was 2.38 µM·h. For the same compound, the AUC(0-t) [2, 28] was 1.41 µM·h and the concentration at 24 h [2, 27] was 37.4 nM.
With `C=C[C@@H]1C[C@]1(NC(=O)[C@@H]1C[C@@H]2CN1C(=O)[C@H](C(C)(C)C)NC(=O)O[C@@H]1C[C@H]1CCCCCc1nc3ccc(OC)cc3nc1O2)C(=O)NS(=O)(=O)C1CC1` [Compound III, (1aR,5S,8S,10R,22aR)-N-[(1R,2S)-1-[(cyclopropylsulfonamido)carbonyl]-2-ethenylcyclopropyl]-14-methoxy-5-(2-methylpropan-2-yl)-3,6-dioxo-1,1a,3,4,5,6,9,10,18,19,20,21,22,22a-tetradecahydro-8H-7,10-methanocyclopropa[18,19][1,10,3,6]dioxadiazacyclononadecino[11,12-b]quinoxaline-8-carboxamide hydrate] the “AUC0-24 B/A GM ratio” value [1, 3] was 0.71, the “AUC0-last B/A GM ratio” value [1, 3] was 0.72 and the “AUC0-∞ B/A GM ratio” value [1, 3] was 0.69. The “C24 B/A GM ratio” value [1, 3] was 0.80, the “Cmax B/A GM ratio” value [1, 3] was 0.70 and the “AUC0-24 C/A GM ratio” value [1, 4] was 0.86. For the same compound, the “AUC0-last C/A GM ratio” value [1, 4] was 0.91, the “AUC0-∞ C/A GM ratio” value [1, 4] was 0.95 and the “C24 C/A GM ratio” value [1, 4] was 0.85. For the same compound, the “Cmax C/A GM ratio” value [1, 4] was 0.91, the AUC(0-inf) [1, 14] was 0.5 µM·h and the Cmax [1, 14] was 27.5 nM. For the same compound, the AUC(0-t) [1, 15] was 0.24 µM·h, the AUC(0-t) [1, 16] was 0.36 µM·h and the concentration at 24 h [1, 14] was 4.85 nM. The AUC(0-t) [1, 17] was 0.26 µM·h, the AUC(0-inf) [1, 18] was 0.34 µM·h and the Cmax [1, 18] was 19.3 nM. The AUC(0-t) [1, 19] was 0.17 µM·h, the concentration at 24 h [1, 18] was 3.89 nM and the AUC(0-t) [1, 20] was 0.33 µM·h. The AUC(0-inf) [1, 21] was 0.47 µM·h, the Cmax [1, 21] was 24.9 nM and the AUC(0-t) [1, 22] was 0.2 µM·h. For the same compound, the concentration at 24 h [1, 21] was 4.11 nM, the “AUC0-24 B/A GM ratio” value [2, 10] was 0.72 and the “AUC0-last B/A GM ratio” value [2, 10] was 0.77. For the same compound, the “AUC0-∞ B/A GM ratio” value [2, 10] was 0.76, the “C24 B/A GM ratio” value [2, 10] was 0.85 and the “Cmax B/A GM ratio” value [2, 10] was 0.64. For the same compound, the “AUC0-24 C/A GM ratio” value [2, 11] was 1.00, the “AUC0-last C/A GM ratio” value [2, 11] was 0.97 and the “AUC0-∞ C/A GM ratio” value [2, 11] was 0.88. For the same compound, the “C24 C/A GM ratio” value [2, 11] was 1.04, the “Cmax C/A GM ratio” value [2, 11] was 0.89 and the AUC(0-inf) [2, 14] was 0.7 µM·h. It also gave a Cmax [2, 14] of 38.5 nM, an AUC(0-t) [2, 15] of 0.316 µM·h and an AUC(0-t) [2, 16] of 0.538 µM·h. For the same compound, the concentration at 24 h [2, 14] was 6.38 nM, the AUC(0-t) [2, 23] was 0.415 µM·h and the AUC(0-inf) [2, 24] was 0.53 µM·h. It also gave a Cmax [2, 24] of 24.8 nM, an AUC(0-t) [2, 25] of 0.229 µM·h and a concentration at 24 h [2, 24] of 5.41 nM. For the same compound, the AUC(0-t) [2, 26] was 0.522 µM·h, the AUC(0-inf) [2, 27] was 0.617 µM·h and the Cmax [2, 27] was 34.1 nM. For the same compound, the AUC(0-t) [2, 28] was 0.317 µM·h, the concentration at 24 h [2, 27] was 6.63 nM and the logD (log D) was -3.
